One data set deals with J774.A1. Briefly: Inhibition of LPS-induced NO production in mouse J774A1 cells by Griess assay. It counts as functional, cell-based. (Nitrite, measured by Griess reagent, commonly stands in for NO production.)
In a further data set the test system is HEK293. In words: Inhibition of LPS-induced NF-kappaB nuclear transactivation in HEK293 cells coexpressed with TLR4 assessed as alkaline phosphatase activity by spectrophotometry. To be noted: Homo sapiens. It counts as cell-based.
Data set [1] has as its system Mus musculus. Briefly: Toxicity in Escherichia coli 0111:B4 LPS-induced lethality in CF1 mouse at 200 mg/kg, ip after 24 hrs. It counts as organism-based. Further details: dose 200 mg/kg, route intraperitoneal. To be noted: in vivo.
Another data set has as its system Blood. Briefly: Inhibition of Escherichia coli 0111:B4 LPS-induced proinflammatory cytokine production in human whole blood after 4 hrs. It counts as functional, tissue-based.
Data set [2] has as its system Mus musculus. Briefly: Toxicity in Escherichia coli 0111:B4 LPS-induced lethality in ip dosed CF1 mouse after 24 hrs. To be noted: in vivo. It counts as organism-based.

This passage reports Activity and LD100 results from ChEMBL document CHEMBL1140850, “Structure-activity relationships of lipopolysaccharide sequestration in guanylhydrazone-bearing lipopolyamines” (Bioorg Med Chem, 2009).

The source made the active and inactive calls. No cut-off for these calls is given here.

As to `CCCCCCCCCCCCCCCCNCCCNCCCCNCCCNCC/C=N/NC(=N)N`, the result in the data set on J774.A1 and in the data set on HEK293 was Active.

Take `CCCCCCCCCCCCCCCCNC(=N)N/N=C/CCNCCCNCCCCNCCCN.O=C(O)C(F)(F)F`: the Activity entry in the data set with Mus musculus [1] was “Non-toxic”; with Blood, “Dose-dependent effect”; in the data set on Mus musculus [2] it was “Dose-dependent effect”. The outcome in the data set with J774.A1 was Active. In the data set on Mus musculus [2], this compound returned an LD100 of 100 ng.
